Reference: patent US11787781B2, “Inhibiting ataxia telangiectasia and RAD3-related protein (ATR)” (Celator Pharmaceuticals, Inc., priority 2016, dated 2023)

Legend:
[1] = Loading of ATR inhibitors into TEA-SOS liposomes and liposome characterization; format: physicochemical
Method: Sodium sucrose octasulfate (equivalent weight 144.8) is a sodium salt of sucrose derivate in which all hydroxyl groups have formed sulfuric acid esters. Sixty gram of sucrose octasulfate (SOS) sodium salt were dissolved in 150 ml of di water, heated with shaking (swirling) of a 50° C. water bath. The solution was passed through a column packed with sulfonated polystyrene divinylbenzene copolymer cation exchange resin beads (Dowex 50Wx8-100-200 mesh, Dow Chemical Co.). […] The eluent was monitored using a conductivity detector. The SOS fraction was collected corresponding to conductivity peak and immediately titrated with neat triethylamine (TEA) solution to pH 6-6.5. The solution was analyzed for residual sodium by potentiometry using a sodium-sensitive electrode and for SOS concentration using a refractometer. The solution having residual sodium less than 0.25% was diluted with di water to final SOS concentration 1.1 M and then sterile-filtered using Millipore 0.22 μm Steri-Top filter.
Cholesterol (Chol) was purchased from Avanti Polar Lipids, Alabaster, Ala., USA, hydrogenated soy phosphocholine (HSPC) and methoxy-poly(ethylene glycol)-1,2-distearoyl-sn-glyceryl (PEG2000-DSG) were obtained from Lipoid GmbH, Ludwigshafen, Germany.
Chol, HSPC and PEG2000-DSG were co-dissolved in 100% ethanol (200-proof, Sigma cat #: 459828) at a molar ratio of 3:2:0.15 at 65° C. The solution of TEA-SOS (10 times the volume of added ethanol) was mixed with the lipid solution at 60-65° C. and stirred at this temperature until a homogeneous milky suspension of multilamellar vesicles was formed. This suspension was extruded 3 times through 5 stacked polycarbonate track-etched filters (Corning Nuclepore) with the pore size of 100 nm using argon pressure extruder (Lipex Biomembranes) at 60-65° C., and resulting unilamellar liposomes were quickly chilled in ice and then stored at 4-6° C. before use. Concentration of phospholipids was measured by phosphate assay and particle diameter was recorded on a Malvern Nanosizer.
Prior to drug loading, the TEA-SOS gradient was created by removing excess of un-trapped TEA-SOS using gel-chromatography (Sepharose CL-4B, Pharmacia). Osmolarity of liposomes was balanced using 50% dextrose solution. Final dextrose concentration was 15%.
ATR inhibitors were dissolved in 15% dextrose solutions in di water by titration with 1 M HCl and heating at 45° C. and then filtered with 0.2 micron NALGENE 13 mm Syringe Filters. Drug concentration in the solution was detected by HPLC. […]
The liposome-drug mixture was incubated with occasional agitation for 30 minutes at 65° C. The incubation mixture was quickly cooled down and incubated for 10 minutes at 0° C., then allowed to attain ambient temperature. Un-encapsulated drug was removed by gel chromatography on Sephadex G-25 (Amersham Pharmacia) eluted with HBS-6.5 buffer (5 mM 2-(4-(2-hydroxyethyl)-piperazino)-ethylsulfonic acid (HEPES), 144 mM NaCl, pH 6.5). Liposome fractions eluted in the void volume were combined, sterilized by 0.2 micron filtration, and stored at 4-6° C. before use. The liposomes were characterized by lipid concentration, drug concentration, and particle size (Table 2).

ATR/ATRIP(h) = ATR/ATRIP(h) (Homo sapiens (Human), UniProt Q13535); assay: Eurofins ATR/ATRIP HTRF assay, p53 Ser15 phosphorylation; format: biochemical; parameters: key to Top / Bottom: % of DMSO positive control activity; details: ATP 10 μM
Method: An EC50 determination was conducted for the supplied set of compounds against the kinase ATR/ATRIP(h), using a linear enzyme concentration in the Eurofins ATR/ATRIP HTRF assay using GST tagged full length p53 as the substrate.
ATR/ATRIP phosphorylation of p53 on Ser15 was measured via formation of an energy transfer complex consisting of a Europium-labelled anti-phospho Ser15 p53 antibody and an anti-GST-d2 antibody. All data points were performed in duplicate with DMSO controls and EDTA blanks.
ATR/ATRIP(h) was pre-diluted in 25 mM HEPES pH 8.0, 0.01% Brij-35, 1% Glycerol, 5 mM DTT, 1 mg/mL BSA and assayed in 25 mM HEPES pH 8.0, 0.01% Brij-35, 1% Glycerol, 10 mM MnCl2 using 30 nM GST, cMyc p53-(hu,FL) as the substrate. The reaction was initiated with the addition of ATP to a final concentration of 10 μM.
The individual replicates were expressed in terms of the % of the DMSO positive control activity. The mean activity (% control) of each inhibitor concentration was plotted against the inhibitor concentration, and EC50 values were determined using […] PRISM.
The data expressed as % control activity were plotted against inhibitor concentration, and fitted to a four parameter logistic using […] PRISM. Graphs for each compound are shown alongside the data in the accompanying Excel report.

[2] = tested on: total and phospho-ATR (S428), phospho-CHK1 (S317 and S345) in DMS-114 cells; assay: Western blot of total and phospho-ATR, phospho-CHK1 in DMS-114 cells; format: cell-based
Method: Whole cell protein lysates were generated after 1, 3, 6 and 24 hours using a 2% SDS containing cell lysis buffer and stored at −80° C. until all samples were collected and run together at the same time for the WesternBlot analysis. The following proteins and phosphoproteins of interest were detected by antibodies purchased from Cell Signaling Technology (see methods and materials part below): total and phospho-ATR (S428), phospho-CHK1 (S317 and S345), γH2AX, beta-actin.
All target and phospho-specific antibodies were purchased from Cell Signaling and/or Epitomics and were used at 1:1000 dilutions. A list of all antibodies is available in Table 6. Standard antibody based Western blot and immunohistochemistry protocols were used. Briefly, 2% SDS based cell lysis buffer was used to collect whole cell lysate for Western Blotting. Secondary antibodies and staining protocols were purchased and followed regarding LiCor Biosciences and/or BD Bioscience.
Cells were grown and treated in a 6 cm dish scale. To harvest cells, medium was removed and quickly replaced by ice cold PBS. PBS was then replaced with 250 μL of 2% SDS lysis buffer. After five minutes of incubation, the lysed cells were scraped off and loaded onto a cell lysate homogenizer microcentrifuge spin-column (QIAshredder, Qiagen, Cat.-Nr. 79656). The filtrate was then loaded onto a 0.2 μm centrifugal filter column (Nanosep MF 0.2_m, Pall, Cat.-Nr. ODM02C34). The lysates were then stored at −80° C.

SUM149 cells = assay: Cell cycle stage profile, SUM149 cells; format: cell-based; details: 24 hours after addition of SN38 and ATR inhibitor
[3] = four parameter logistic fit of % control activity

Sequence of ATR/ATRIP(h) (Q13535 whole entry): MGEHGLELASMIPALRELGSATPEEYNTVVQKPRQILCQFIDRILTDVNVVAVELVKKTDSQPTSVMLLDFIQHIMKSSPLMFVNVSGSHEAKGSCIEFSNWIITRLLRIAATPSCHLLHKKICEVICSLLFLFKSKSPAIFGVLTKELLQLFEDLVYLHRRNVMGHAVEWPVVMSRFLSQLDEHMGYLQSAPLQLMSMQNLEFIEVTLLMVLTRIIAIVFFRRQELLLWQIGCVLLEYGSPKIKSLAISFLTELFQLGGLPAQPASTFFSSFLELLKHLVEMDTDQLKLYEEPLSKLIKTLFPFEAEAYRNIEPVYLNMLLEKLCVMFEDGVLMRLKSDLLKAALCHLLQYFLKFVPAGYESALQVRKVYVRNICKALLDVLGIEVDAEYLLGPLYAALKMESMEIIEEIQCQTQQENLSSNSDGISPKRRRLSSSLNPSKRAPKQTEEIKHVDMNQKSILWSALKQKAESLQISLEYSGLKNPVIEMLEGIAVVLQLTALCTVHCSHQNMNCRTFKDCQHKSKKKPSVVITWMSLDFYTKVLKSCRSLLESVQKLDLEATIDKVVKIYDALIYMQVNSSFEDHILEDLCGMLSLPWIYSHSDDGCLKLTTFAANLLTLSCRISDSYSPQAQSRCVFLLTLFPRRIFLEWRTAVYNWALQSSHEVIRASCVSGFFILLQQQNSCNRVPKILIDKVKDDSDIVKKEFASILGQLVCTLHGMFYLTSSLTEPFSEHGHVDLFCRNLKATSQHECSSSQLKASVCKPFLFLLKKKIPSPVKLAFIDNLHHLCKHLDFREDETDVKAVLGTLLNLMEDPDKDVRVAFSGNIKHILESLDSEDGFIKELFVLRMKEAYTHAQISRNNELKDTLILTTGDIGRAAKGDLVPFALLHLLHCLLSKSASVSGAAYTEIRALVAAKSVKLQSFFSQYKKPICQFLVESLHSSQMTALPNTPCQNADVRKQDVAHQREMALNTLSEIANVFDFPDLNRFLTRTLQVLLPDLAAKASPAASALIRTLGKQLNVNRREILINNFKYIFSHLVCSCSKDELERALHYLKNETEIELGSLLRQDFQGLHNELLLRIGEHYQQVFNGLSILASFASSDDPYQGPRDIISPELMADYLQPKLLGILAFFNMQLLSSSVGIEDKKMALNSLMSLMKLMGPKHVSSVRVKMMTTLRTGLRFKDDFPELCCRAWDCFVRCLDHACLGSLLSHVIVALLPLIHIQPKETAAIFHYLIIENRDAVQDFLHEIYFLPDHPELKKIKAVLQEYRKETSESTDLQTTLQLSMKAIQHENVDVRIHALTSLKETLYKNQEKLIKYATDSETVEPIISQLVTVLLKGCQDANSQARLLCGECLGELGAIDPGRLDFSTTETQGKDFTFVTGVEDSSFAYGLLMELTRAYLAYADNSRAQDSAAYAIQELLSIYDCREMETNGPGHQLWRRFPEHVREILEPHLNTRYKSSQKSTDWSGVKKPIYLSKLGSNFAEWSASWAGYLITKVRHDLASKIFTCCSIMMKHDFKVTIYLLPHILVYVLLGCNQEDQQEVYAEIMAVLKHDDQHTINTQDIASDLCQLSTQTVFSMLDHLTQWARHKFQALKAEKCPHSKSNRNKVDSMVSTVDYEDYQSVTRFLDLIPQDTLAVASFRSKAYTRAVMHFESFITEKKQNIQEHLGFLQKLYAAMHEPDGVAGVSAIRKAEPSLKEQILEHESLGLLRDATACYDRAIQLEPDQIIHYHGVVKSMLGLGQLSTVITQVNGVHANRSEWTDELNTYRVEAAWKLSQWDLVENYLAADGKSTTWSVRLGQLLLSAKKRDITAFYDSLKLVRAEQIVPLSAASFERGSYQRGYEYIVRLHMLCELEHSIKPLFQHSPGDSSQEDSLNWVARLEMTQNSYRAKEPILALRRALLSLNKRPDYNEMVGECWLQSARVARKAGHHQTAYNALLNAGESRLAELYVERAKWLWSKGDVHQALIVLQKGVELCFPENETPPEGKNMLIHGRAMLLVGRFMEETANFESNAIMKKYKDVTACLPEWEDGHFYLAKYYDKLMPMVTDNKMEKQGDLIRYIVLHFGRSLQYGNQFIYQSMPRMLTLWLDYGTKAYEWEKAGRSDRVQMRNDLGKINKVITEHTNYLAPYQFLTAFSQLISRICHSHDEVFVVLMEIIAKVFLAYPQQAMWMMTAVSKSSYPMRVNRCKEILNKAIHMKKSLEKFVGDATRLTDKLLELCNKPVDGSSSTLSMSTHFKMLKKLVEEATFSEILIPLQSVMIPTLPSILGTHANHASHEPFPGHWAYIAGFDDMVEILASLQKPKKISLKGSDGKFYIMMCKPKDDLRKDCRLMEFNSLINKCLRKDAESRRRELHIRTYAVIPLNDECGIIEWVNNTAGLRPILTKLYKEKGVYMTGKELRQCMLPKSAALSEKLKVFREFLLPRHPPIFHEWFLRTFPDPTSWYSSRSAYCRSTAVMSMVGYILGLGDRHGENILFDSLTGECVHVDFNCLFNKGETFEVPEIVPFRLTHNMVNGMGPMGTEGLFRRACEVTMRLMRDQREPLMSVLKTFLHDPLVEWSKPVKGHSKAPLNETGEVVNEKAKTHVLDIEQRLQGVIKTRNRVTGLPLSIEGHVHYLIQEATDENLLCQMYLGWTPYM
Sequence of ATR/ATRIP(h) (Q8WXE1 whole entry partner): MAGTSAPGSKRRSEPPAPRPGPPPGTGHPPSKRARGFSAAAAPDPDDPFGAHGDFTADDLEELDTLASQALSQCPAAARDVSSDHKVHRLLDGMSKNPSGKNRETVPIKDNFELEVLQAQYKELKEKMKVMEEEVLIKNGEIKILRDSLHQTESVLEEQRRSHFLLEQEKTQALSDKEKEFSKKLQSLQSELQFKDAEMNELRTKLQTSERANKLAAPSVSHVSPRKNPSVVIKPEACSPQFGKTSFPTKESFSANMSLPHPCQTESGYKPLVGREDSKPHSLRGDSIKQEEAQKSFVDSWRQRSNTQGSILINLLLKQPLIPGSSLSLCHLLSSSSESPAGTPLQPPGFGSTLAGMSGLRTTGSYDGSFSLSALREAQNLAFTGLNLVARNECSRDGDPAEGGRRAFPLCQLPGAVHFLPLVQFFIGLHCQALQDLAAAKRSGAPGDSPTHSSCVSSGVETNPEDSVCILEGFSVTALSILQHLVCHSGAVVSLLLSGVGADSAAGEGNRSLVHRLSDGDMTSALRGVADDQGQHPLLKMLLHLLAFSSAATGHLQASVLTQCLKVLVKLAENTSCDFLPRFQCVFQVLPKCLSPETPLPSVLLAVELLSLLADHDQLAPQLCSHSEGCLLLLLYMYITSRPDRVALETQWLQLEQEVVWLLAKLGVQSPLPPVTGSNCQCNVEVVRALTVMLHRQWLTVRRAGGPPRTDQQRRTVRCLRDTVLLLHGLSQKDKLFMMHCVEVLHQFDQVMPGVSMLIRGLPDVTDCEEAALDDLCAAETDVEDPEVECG

Loading efficiency (%) ([1]; TEA-SOS liposomes, Compound 1 at ratio before loading 379): 84 ± 8%
Drug/lipid ratio after loading ([1]; TEA-SOS liposomes, input ratio before loading (Compound 1: 379)): 619 ± 110
Liposome size, (mean ± SD) nm ([1]; liposomes loaded with the ATR inhibitor): 120 ± 29 nm
EC50 (ATR/ATRIP(h)): 0.234 µM
Hill (ATR/ATRIP(h); four parameter logistic fit): −0.819
Bottom (ATR/ATRIP(h); [3]): 1
Top (ATR/ATRIP(h); [3]): 95
SMILES: CN(C)CCC1CCN(CCS(=O)(=O)c2ccc(-c3cnc(N)c(C(=O)Nc4ccccc4)n3)cc2)CC1 [Compound 5, 3-amino-6-(4-((2-(4-(2-(dimethylamino)ethyl)piperidin-1-yl)ethyl)sulfonyl)phenyl)-N-phenylpyrazine-2-carboxamide]
phosphorylation signal of CHK1 (S317 and S345) induced by Gemcitabine ([2]; ATR inhibitor 1 μM added to Gemcitabine 16 nM): abrogates the phosphorylation signal of CHK1
total and phospho-ATR signal ([2]; ATR inhibitor 1 μM, alone or with Gemcitabine 16 nM, up to 24 hrs): strongly reduced
cell cycle stage profile vs controls (SUM149 cells): larger percentage of cells are arrested in G2 phase
